Assay results reported in US8092805B2, “Dual inhibitors of HIV-1 gp-120 interactions” (priority 2004, dated 2012).

Tests used:
[1] = test system: gp120 interaction with CD4; settings: Biorn et al. 2004; cited from earlier work
YU2 gp120 = target: T1, YU2 gp120 (Human immunodeficiency virus type 1 group M subtype B, UniProt P35961); assay type: binding, HIV-1; settings: SPR
T1 construct: immobilized YU2 gp120
Protocol: Req. was calculated from 280 to 295 seconds in each concentration sensorgram and plotted against the concentration of the peptide.
Increasing concentrations of peptide were passed over an immobilized high density (5000 RU) surface. […] Buffer injections and controls were subtracted for all reported data. The equilibrium constant KD was calculated from the fit of direct binding to a steady state 1:1 binding model as a function of Req.

Compound | inhibition of interaction of gp120 to CD4 (in words) [1] | direct interaction with YU2 gp120 (in words) (YU2 gp120)
CC[C@H](C)[C@H](NC(=O)[C@@H](N)CCCNC(=N)N)C(=O)N[C@@H](CC(N)=O)C(=O)N[C@@H](CC(N)=O)C(=O)N[C@H](C(=O)N1CCC[C@H]1C(=O)N[C@@H](Cc1c[nH]c2ccccc12)C(=O)N[C@@H](CO)C(=O)N[C@@H](CCC(=O)O)C(=O)N[C@@H](C)C(=O)N[C@@H](CCSC)C(=O)N[C@@H](CCSC)C(=O)O)[C@@H](C)CC [Peptide 1] | micromolar affinity | 
RINNIAmpWSEAMM [Peptide 4] |  | no effect on gp120
